# Reference: patent US20160368870A1, “OLEFIN SUBSTITUTED OXINDOLES HAVING AMPK ACTIVITY” (BOEHRINGER INGELHEIM INTERNATIONAL GMBH, priority 2013, published 2016)
# Molecular target: T1, AMPK beta 1 (Homo sapiens, UniProt Q13131+Q9Y478)
# T1 construct: in-cell-ELISA for phospho-ACC (Acetyl-CoA carboxylase 1) in HepG2 cells (liver); endogenous in cells; host or cells: HepG2
# Assay: in-cell-ELISA for phospho-ACC, Activity beta 1
# Format: cell-based
# Conditions: 2 h, serum free DMEM, percentage activation over vehicle control, cell line not given (HepG2 or C2C12 myotubes)
# Description: (§1) Activation of AMPK by various compounds were measured using in-cell-ELISA for phospho-ACC (Acetyl-CoA carboxylase 1) in HepG2 cells (liver) and fully differentiated myotubes (C2C12 cells) grown in 96 well plate. Cells were treated with 1 μM of the molecule for 2 h in serum free DMEM media. After methanol fixation, cells were blocked with BSA followed by addition of anti-phospho ACC antibody (Cell Signaling) and HRP conjugated secondary antibody. Absorbance values taken at 450 nm and were normalized with total DNA (Hoechest stain). Results were expressed as percentage activation over vehicle control.
# T1 sequence (Q9Y478 whole entry): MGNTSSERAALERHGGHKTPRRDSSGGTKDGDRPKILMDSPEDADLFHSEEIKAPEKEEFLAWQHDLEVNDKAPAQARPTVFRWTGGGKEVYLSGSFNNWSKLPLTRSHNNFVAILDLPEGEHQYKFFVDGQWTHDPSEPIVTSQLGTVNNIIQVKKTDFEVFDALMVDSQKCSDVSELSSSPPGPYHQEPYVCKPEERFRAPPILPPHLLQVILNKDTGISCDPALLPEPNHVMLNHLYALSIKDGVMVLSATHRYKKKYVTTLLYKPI
# T1 sequence (Q13131 whole entry): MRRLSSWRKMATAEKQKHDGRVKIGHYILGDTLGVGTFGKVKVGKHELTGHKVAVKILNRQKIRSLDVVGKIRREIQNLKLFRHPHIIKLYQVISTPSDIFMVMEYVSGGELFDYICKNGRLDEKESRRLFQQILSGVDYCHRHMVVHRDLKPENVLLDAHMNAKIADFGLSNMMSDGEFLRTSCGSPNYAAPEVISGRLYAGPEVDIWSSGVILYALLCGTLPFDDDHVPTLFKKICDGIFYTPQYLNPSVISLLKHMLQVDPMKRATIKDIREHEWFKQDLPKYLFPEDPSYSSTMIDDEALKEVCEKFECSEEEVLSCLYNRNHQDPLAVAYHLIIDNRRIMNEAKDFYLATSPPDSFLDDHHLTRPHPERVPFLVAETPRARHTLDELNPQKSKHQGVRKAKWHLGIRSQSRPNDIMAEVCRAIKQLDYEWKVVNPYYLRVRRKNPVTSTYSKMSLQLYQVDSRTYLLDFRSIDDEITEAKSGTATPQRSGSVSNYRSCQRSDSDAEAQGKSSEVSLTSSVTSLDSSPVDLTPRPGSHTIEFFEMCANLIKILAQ
# T1 sequence (P54619 whole entry partner): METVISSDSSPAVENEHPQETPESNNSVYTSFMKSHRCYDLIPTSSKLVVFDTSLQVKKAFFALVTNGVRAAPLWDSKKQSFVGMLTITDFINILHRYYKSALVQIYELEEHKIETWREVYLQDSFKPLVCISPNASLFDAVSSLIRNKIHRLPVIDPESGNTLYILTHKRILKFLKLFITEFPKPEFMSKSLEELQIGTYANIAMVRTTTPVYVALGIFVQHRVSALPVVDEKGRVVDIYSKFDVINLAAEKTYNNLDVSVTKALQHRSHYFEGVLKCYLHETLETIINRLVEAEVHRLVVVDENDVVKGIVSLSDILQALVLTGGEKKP
activation at 1 µM [%],Structure (SMILES),Activity beta 1 (at 1 uM)
> 40,Cc1ccc(C=C2C(=O)Nc3cc(F)c(-c4ccc(-c5ccc(-n6cccn6)cc5)cc4)cc32)cc1C(=O)O [Example 61],–
< 20,"C/C(=C1/C(=O)Nc2cc(F)c(-c3ccc(-c4ccccc4O)cc3)cc21)c1cccc(CC(=O)N2CCCC2)c1 [Example 24, (3Z)-6-Fluoro-5-(2′-hydroxybiphenyl-4-yl)-3-(1-{3-[2-oxo-2-(pyrrolidin-1-yl)ethyl]phenyl}ethylidene)-1,3-dihydro-2H-indol-2-one]",–
< 20,O=C1Nc2cc(Cl)c(-c3ccc(-c4ccccc4O)cc3)cc2C1=Cc1csc(C(=O)O)n1 [Example 22],–
> 40,O=C(O)Cc1cccc(C=C2C(=O)Nc3cc(Cl)c(-c4ccc(-c5ccc(-n6cncn6)cc5)cc4)cc32)c1 [Example 52],–
< 20,Cc1ccc(C=C2C(=O)Nc3cc(Cl)c(-c4ccc(-c5ccccc5O)cn4)cc32)cc1CC(=O)O [Example 31],–
20 to 40,Cc1ccc(C=C2C(=O)Nc3cc(Cl)c(-c4ccc(-c5ccccc5O)cc4)nc32)cc1CC(=O)O [Example 36],–
> 40,"Cc1ccc(C=C2C(=O)Nc3cc(Cl)c(-c4ccc(-c5ccccc5O)cc4)cc32)cc1CC(=O)O (racemic) [Example 1, (5-{(E/Z)-[6-Chloro-5-(2′-hydroxybiphenyl-4-yl)-2-oxo-1,2-dihydro-3H-indol-3-ylidene]methyl}-2-methylphenyl)acetic acid]",–
> 40,COc1ccc(C=C2C(=O)Nc3cc(F)c(-c4ccc(-c5ccc(-n6cncn6)cc5)cc4)cc32)cc1CC(=O)O [Example 59],–
> 40,COc1ccc(C=C2C(=O)Nc3cc(F)c(-c4ccc(-c5ccccc5O)cc4)cc32)cc1CC(=O)O [Example 7],–
< 20,"Cc1ccc(C=C2C(=O)Nc3cc(F)c(-c4cccc(-c5ccccc5O)c4)cc32)cc1CC(=O)O (single isomer, unassigned) [Example 30, (5-{(E/Z)-[6-Fluoro-5-(2′-hydroxybiphenyl-3-yl)-2-oxo-1,2-dihydro-3H-indol-3-ylidene]methyl}-2-methylphenyl)acetic acid]",–
> 40,O=C(O)Cc1ccc(C=C2C(=O)Nc3cc(Cl)c(-c4ccc(-c5ccc(-n6cncn6)cc5)cc4)cc32)cc1 [Example 53],–
< 20,"Cn1nc(/C=C2\C(=O)Nc3cc(Cl)c(-c4ccc(-c5ccccc5O)cc4)cc32)cc1C(=O)O [Example 20, 3-{(Z)-[6-chloro-5-(2′-hydroxybiphenyl-4-yl)-2-oxo-1,2-dihydro-3H-indol-3-ylidene]methyl}-1-methyl-1H-pyrazole-5-carboxylic acid]",–
> 40,Cn1ccc(C=C2C(=O)Nc3cc(Cl)c(-c4ccc(-c5ccccc5O)cc4)cc32)c1 [Example 19],–
> 40,Cc1ccc(C=C2C(=O)Nc3cc(F)c(-c4ccc(-c5ccc(-n6ccnn6)cc5)cc4)cc32)cc1C(=O)O [Example 64],–
20 to 40,Cc1ccc(C=C2C(=O)Nc3cc(F)c(-c4ccc(-c5ccccc5O)cc4)cc32)cc1C(=O)O [Example 2],–
20 to 40,Cn1c(C=C2C(=O)Nc3cc(Cl)c(-c4ccc(-c5ccccc5O)cc4)cc32)ccc1C(=O)O [Example 14],–
< 20,Cn1cc(C=C2C(=O)Nc3cc(Cl)c(-c4ccc(-c5ccccc5)cc4)cc32)cc1C(=O)O [Example 23],–
< 20,Cc1ccc(C=C2C(=O)Nc3cc(F)c(-c4ccc(-c5ccncc5)cc4)cc32)cc1CC(=O)O [Example 44],–
< 20,CN1C(=O)C(=Cc2cc(C(=O)O)n(C)c2)c2cc(-c3ccc(-c4ccccc4O)cc3)c(Cl)cc21 [Example 29],–
> 40,COc1ccc(C=C2C(=O)Nc3cc(Cl)c(-c4ccc(-c5ccc(-n6ccnn6)cc5)cc4)cc32)cc1CC(=O)O [Example 56],–
< 20,COc1ccc(C=C2C(=O)Nc3cc(Cl)c(-c4ccc(-c5ccccc5O)cn4)cc32)cc1CC(=O)O [Example 34],–
20 to 40,Cc1ccc(C=C2C(=O)Nc3cc(Cl)c(-c4ccc(-c5ccncc5)cc4)cc32)cc1CC(=O)O [Example 39],–
< 20,Cc1ccc(C=C2C(=O)Nc3cc(Cl)c(-c4ccc(-c5ccccc5O)cn4)cc32)cc1C(=O)O [Example 32],–
< 20,O=C(O)Cc1cccc(C=C2C(=O)Nc3cc(Cl)c(-c4ccc(-c5ccccc5O)nc4)cc32)c1 [Example 35],–
< 20,COc1ccc(C=C2C(=O)Nc3cc(Cl)c(-c4ncc(-c5ccccc5O)cn4)cc32)cc1CC(=O)O [Example 46],–
20 to 40,COc1ccc(C=C2C(=O)Nc3cc(Cl)c(-c4ccc(-c5ccccc5O)cc4)nc32)cc1C(=O)O [Example 38],–
< 20,Cn1cc(C=C2C(=O)N(CCO)c3cc(Cl)c(-c4ccc(-c5ccccc5O)cc4)cc32)cc1C(=O)O [Example 26],–

activation at 1 µM [%],Structure (SMILES),Activity beta 1 (at 1 uM)
> 40,Cc1ccc(C=C2C(=O)Nc3cc(F)c(-c4ccc(-c5ccccc5O)cc4)cc32)cc1CC(=O)O [Example 3],–
< 20,Cn1cc(C=C2C(=O)Nc3cc(F)c(-c4ccc(-c5ccncc5)cc4)cc32)cc1C(=O)O [Example 43],–
> 40,COc1ccc(C=C2C(=O)Nc3cc(Cl)c(-c4ccc(-c5ccccc5O)cc4)cc32)cc1CC(=O)O [Example 11],–
20 to 40,Cc1ccc(C=C2C(=O)Nc3cc(Cl)c(-c4ccc(-c5ccc(-n6cncn6)cc5)cc4)cc32)cc1CC(=O)O [Example 50],–
> 40,Cn1cc(C=C2C(=O)Nc3cc(Cl)c(-c4ccc(-c5ccc(-n6cncn6)cc5)cc4)cc32)cc1C(=O)O [Example 63],–
< 20,Cc1ccc(C=C2C(=O)Nc3cc(Cl)c(-c4ncc(-c5ccccc5O)cn4)cc32)cc1CC(=O)O [Example 45],–
–,"Cn1nc(C=C2C(=O)Nc3cc(Cl)c(-c4ccc(-c5ccccc5O)cc4)cc32)cc1C(=O)[O-].[Na+] (mixture of isomers) [Example 21, Sodium 3-{(E/Z)-[6-chloro-5-(2′-hydroxybiphenyl-4-yl)-2-oxo-1,2-dihydro-3H-indol-3-ylidene]methyl}-1-methyl-1H-pyrazole-5-carboxylate]",* (* <20)
> 40,COc1ccc(C=C2C(=O)Nc3cc(Cl)c(-c4ccc(-c5ccccc5O)cc4)nc32)cc1CC(=O)O [Example 37],–
> 40,Cn1cc(C=C2C(=O)Nc3cc(Cl)c(-c4ccc(-c5ccccc5O)cc4)cc32)cc1C(=O)O [Example 13],–
< 20,"O=C(O)Cc1cc(C=C2C(=O)Nc3cc(Cl)c(-c4ccc(-c5ccccc5O)cc4)cc32)ccc1O (racemic) [Example 12, (5-{(E/Z)-[6-Chloro-5-(2′-hydroxybiphenyl-4-yl)-2-oxo-1,2-dihydro-3H-indol-3-ylidene]methyl}-2-hydroxyphenyl)acetic acid]",–
< 20,"Cn1ccc(C=C2C(=O)N(CC(=O)O)c3cc(Cl)c(-c4ccc(-c5ccccc5O)cc4)cc32)c1 (racemic) [Example 25, {(3E/32)-6-Chloro-5-(2′-hydroxybiphenyl-4-yl)-3-[(1-methyl-1H-pyrrol-3-yl)methylidene]-2-oxo-2,3-dihydro-1H-indol-1-yl}acetic acid]",–
> 40,O=C(O)Cc1cccc(C=C2C(=O)Nc3cc(F)c(-c4ccc(-c5ccccc5O)cc4)cc32)c1 [Example 5],–
< 20,O=C1Nc2cc(Cl)c(-c3ccc(-c4ccccc4O)cc3)cc2C1=Cc1ccc(C(=O)O)[nH]1 [Example 15],–
< 20,O=C(O)Cc1ccc(C=C2C(=O)Nc3cc(F)c(-c4ccc(-c5ccccc5O)cc4)cc32)cc1 [Example 4],–
< 20,Cc1ccc(C=C2C(=O)Nc3cc(Cl)c(-c4ccc(-c5ccccc5O)cc4)cc32)cc1 [Example 18],–
< 20,O=C(O)COc1cccc(C=C2C(=O)Nc3cc(Cl)c(-c4ccc(-c5ccccc5O)cc4)cc32)c1 [Example 10],–
> 40,Cc1ccc(C=C2C(=O)Nc3cc(Cl)c(-c4ccc(-c5ccccc5O)cc4)cc32)cc1C(=O)O [Example 9],–
> 40,COc1ccc(C=C2C(=O)Nc3cc(Cl)c(-c4ccc(-c5ccc(-n6cncn6)cc5)c(F)c4)cc32)cc1CC(=O)O [Example 60],–
> 40,Cn1c(C=C2C(=O)Nc3cc(Cl)c(-c4ccc(-c5ccc(-n6cncn6)cc5)cc4)cc32)ccc1C(=O)O [Example 69],–
< 20,CC(=C1C(=O)Nc2cc(F)c(-c3ccc(-c4ccccc4O)cc3)cc21)c1cccc(CC(=O)O)c1 [Example 8],–
> 40,Cc1ccc(C=C2C(=O)Nc3cc(F)c(-c4ccc(-c5ccc(-n6cncn6)cc5)cc4)cc32)cc1C(=O)O [Example 65],–
< 20,Cc1ccc(C=C2C(=O)Nc3cc(Cl)c(-c4ccc(-c5ccccc5O)nc4)cc32)cc1CC(=O)O [Example 33],–
< 20,Cn1cc(CC(=O)O)cc1C=C1C(=O)Nc2cc(Cl)c(-c3ccc(-c4ccccc4O)cc3)cc21 [Example 17],–
< 20,O=C1Nc2cc(Cl)c(-c3ccc(-c4ccccc4O)cc3)cc2C1=Cc1c[nH]c(C(=O)O)c1 [Example 16],–
< 20,COc1ccc(C=C2C(=O)Nc3cc(Cl)c(-c4ccc(-c5ccc(-n6ccnc6C)cc5)cc4)cc32)cc1CC(=O)O [Example 66],–
> 40,COc1ccc(C=C2C(=O)Nc3cc(Cl)c(-c4ccc(-c5ccc(-n6cccn6)cc5)cc4)cc32)cc1CC(=O)O [Example 49],–

# Molecular target: T2, AMPK beta 2 (Mus musculus, UniProt Q6PAM0+Q8BRK8)
# T2 construct: fully differentiated myotubes (C2C12 cells) grown in 96 well plate; endogenous in cells; host or cells: C2C12 myotubes
# Assay: in-cell-ELISA for phospho-ACC, Activity beta 2
# Format: cell-based
# Conditions: 2 h, serum free DMEM, percentage activation over vehicle control, cell line not given (HepG2 or C2C12 myotubes)
# Description: as §1
# T2 sequence (Q6PAM0 whole entry): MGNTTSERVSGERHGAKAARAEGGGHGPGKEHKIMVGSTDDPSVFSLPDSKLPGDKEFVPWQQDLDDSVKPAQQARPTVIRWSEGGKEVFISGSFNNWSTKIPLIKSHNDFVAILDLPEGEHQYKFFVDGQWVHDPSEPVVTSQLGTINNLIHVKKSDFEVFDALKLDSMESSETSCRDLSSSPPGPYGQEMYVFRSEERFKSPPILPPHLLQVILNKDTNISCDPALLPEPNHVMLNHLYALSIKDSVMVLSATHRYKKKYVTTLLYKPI
# T2 sequence (Q8BRK8 whole entry): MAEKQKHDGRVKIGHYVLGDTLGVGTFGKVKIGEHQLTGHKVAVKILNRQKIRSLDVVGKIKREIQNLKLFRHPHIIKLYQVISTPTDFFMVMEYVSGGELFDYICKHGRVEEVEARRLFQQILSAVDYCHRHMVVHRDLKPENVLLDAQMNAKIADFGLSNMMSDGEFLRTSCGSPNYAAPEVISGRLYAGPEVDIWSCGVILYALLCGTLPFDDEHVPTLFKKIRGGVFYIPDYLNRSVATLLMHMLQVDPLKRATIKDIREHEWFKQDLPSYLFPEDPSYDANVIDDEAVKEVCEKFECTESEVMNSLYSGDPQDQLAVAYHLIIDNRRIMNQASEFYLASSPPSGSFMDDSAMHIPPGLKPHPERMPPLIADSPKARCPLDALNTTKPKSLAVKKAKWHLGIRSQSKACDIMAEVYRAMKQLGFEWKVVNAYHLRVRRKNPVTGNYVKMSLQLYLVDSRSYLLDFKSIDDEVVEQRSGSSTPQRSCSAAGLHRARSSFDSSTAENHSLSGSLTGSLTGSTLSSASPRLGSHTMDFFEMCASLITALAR
# T2 sequence (O54950 whole entry partner): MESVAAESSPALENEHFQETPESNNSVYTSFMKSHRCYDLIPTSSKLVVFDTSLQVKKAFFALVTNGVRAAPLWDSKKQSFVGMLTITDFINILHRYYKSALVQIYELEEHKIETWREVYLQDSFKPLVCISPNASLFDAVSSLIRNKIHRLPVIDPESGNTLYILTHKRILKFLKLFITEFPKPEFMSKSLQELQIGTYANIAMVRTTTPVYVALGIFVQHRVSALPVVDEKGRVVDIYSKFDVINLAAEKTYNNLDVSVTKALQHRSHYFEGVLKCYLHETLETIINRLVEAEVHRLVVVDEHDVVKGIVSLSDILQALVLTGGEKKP
row,Activity beta 2 (at 1 uM),Structure (SMILES)
1,*** (*** >40),O=C(O)Cc1ccc(C=C2C(=O)Nc3cc(Cl)c(-c4ccc(-c5ccc(-n6cncn6)cc5)cc4)cc32)cc1 [Example 53]
2,*** (*** >40),COc1ccc(C=C2C(=O)Nc3cc(Cl)c(-c4ccc(-c5ccc(-n6ccnn6)cc5)cc4)cc32)cc1CC(=O)O [Example 56]
3,*** (*** >40),COc1ccc(C=C2C(=O)Nc3cc(Cl)c(-c4ccc(-c5ccccc5O)cc4)cc32)cc1CC(=O)O [Example 11]
4,*** (*** >40),Cn1cc(C=C2C(=O)Nc3cc(Cl)c(-c4ccc(-c5ccccc5O)cc4)cc32)cc1C(=O)O [Example 13]
